Results: ChEMBL document CHEMBL1201862, “PubChem BioAssay data set” (2004)
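Values below derive from 48-hour exposures of cells grown in 96-well plates, with endpoints linearly interpolated between the two concentrations bracketing the appropriate inhibition level. GI50 marks 50% less growth.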 Active and inactive are the calls of the source. No stated cut-off is given here; in the data, active = GI50 up to about 1.1 µM and inactive = higher.

Experiments:
Assay in all cases: growth of human tumour cells (NCI), 48 h
HOP-92 = tested on: HOP-92
RXF 393 = tested on: RXF 393
NCI-H23 = tested on: NCI-H23
MCF7 = tested on: MCF7
Hs-578T = tested on: Hs-578T
MOLT-4 = tested on: MOLT-4
SF-295 = tested on: SF-295
HL-60 = tested on: HL-60
KM12 = tested on: KM12
IGROV-1 = tested on: IGROV-1
PC-3 = tested on: PC-3
SNB-19 = tested on: SNB-19
OVCAR-3 = tested on: OVCAR-3
A498 = tested on: A498
OVCAR-4 = tested on: OVCAR-4
T47D = tested on: T47D
SK-MEL-2 = tested on: SK-MEL-2
MDA-N = tested on: MDA-N
786-0 = tested on: 786-0
K562 = tested on: K562

Compound | GI50 (HOP-92) | GI50 (RXF 393) | GI50 (NCI-H23) | GI50 (MCF7) | GI50 (Hs-578T) | GI50 (MOLT-4) | GI50 (SF-295) | GI50 (HL-60) | GI50 (KM12) | GI50 (IGROV-1) | GI50 (PC-3) | GI50 (SNB-19) | GI50 (OVCAR-3) | GI50 (A498) | GI50 (OVCAR-4) | GI50 (T47D) | GI50 (SK-MEL-2) | GI50 (MDA-N) | GI50 (786-0) | GI50 (K562)
C[C@H]1C2Cc3cc(O)ccc3[C@@]1(C)CCN2CCc1ccc(N)cc1 | 1.71 µM (inactive) | 52.7 µM (inactive) | > 100 µM (inactive) | 15.2 µM (inactive) | > 100 µM (inactive) | 23.7 µM (inactive) | 18.6 µM (inactive) | 38.3 µM (inactive) | 16.7 µM (inactive) | 13.6 µM (inactive) | 18.8 µM (inactive) | 81.7 µM (inactive) | 14.2 µM (inactive) | > 100 µM (inactive) | 55.6 µM (inactive) | 80.5 µM (inactive) | 41.9 µM (inactive) | 20.7 µM (inactive) | 15.8 µM (inactive) | 22.3 µM (inactive)
NC12CC3CC4C1CC1CC2C(C3)C4(N)C1 | > 100 µM (inactive) | > 100 µM (inactive) | > 100 µM (inactive) | > 100 µM (inactive) | > 100 µM (inactive) | > 100 µM (inactive) | > 100 µM (inactive) | > 100 µM (inactive) | > 100 µM (inactive) | > 100 µM (inactive) | > 100 µM (inactive) | > 100 µM (inactive) | > 100 µM (inactive) | > 100 µM (inactive) | > 100 µM (inactive) | > 100 µM (inactive) | > 100 µM (inactive) | > 100 µM (inactive) | > 100 µM (inactive) | > 100 µM (inactive)
CC(C)(C)CC(C)(C)N/C(N)=N/O | 20.3 µM (inactive) | > 100 µM (inactive) | > 91 µM (inactive) | 8.79 µM (inactive) | 15 µM (inactive) | > 100 µM (inactive) | > 100 µM (inactive) | > 55.7 µM (inactive) | > 100 µM (inactive) | > 86.7 µM (inactive) | 15.1 µM (inactive) | > 100 µM (inactive) | 22.2 µM (inactive) | > 22.6 µM (inactive) | > 37.4 µM (inactive) | > 32.7 µM (inactive) | > 100 µM (inactive) | > 100 µM (inactive) | > 100 µM (inactive) | 28.8 µM (inactive)
COc1ccc(-c2cc(=O)c3c(O)cc(O)cc3o2)cc1OC | 2.3 µM (inactive) | 46.3 µM (inactive) | > 100 µM (inactive) | > 100 µM (inactive) | 11.5 µM (inactive) | 44 µM (inactive) | 44.8 µM (inactive) | 39.9 µM (inactive) | 33 µM (inactive) | 92 µM (inactive) | 55.1 µM (inactive) | 26.6 µM (inactive) | 46 µM (inactive) | 4.57 µM (inactive) | > 100 µM (inactive) | 71.9 µM (inactive) | > 100 µM (inactive) | > 100 µM (inactive) | 68.9 µM (inactive) | 92.7 µM (inactive)
COc1cc2c(cc1O)Cc1c-2[n+](C)cc2cc(OC)c(OC)cc12 | > 77.3 µM (inactive) | 22.9 µM (inactive) | 12.6 µM (inactive) | 15.2 µM (inactive) | 60 µM (inactive) | 0.653 µM (active) | 7.89 µM (inactive) | 2.75 µM (inactive) | > 59.6 µM (inactive) | 52.7 µM (inactive) | 28.8 µM (inactive) | 1.64 µM (inactive) | 29.7 µM (inactive) | > 64.1 µM (inactive) | > 63.2 µM (inactive) | 19.1 µM (inactive) | > 100 µM (inactive) | 34.9 µM (inactive) | 2.87 µM (inactive) | 1.93 µM (inactive)
C/C1=C\CC[C@@]2(C)O[C@@H]2C[C@@H]2[C@H](C/C(C)=C/CC1)OC(=O)[C@]21CO1 | > 100 µM (inactive) | > 100 µM (inactive) | > 100 µM (inactive) | 41.5 µM (inactive) | > 100 µM (inactive) | 22 µM (inactive) | > 100 µM (inactive) | > 100 µM (inactive) | 28.8 µM (inactive) | 42.2 µM (inactive) | > 100 µM (inactive) | > 100 µM (inactive) | > 100 µM (inactive) | > 100 µM (inactive) | > 100 µM (inactive) | > 100 µM (inactive) | > 100 µM (inactive) | 61.1 µM (inactive) | > 100 µM (inactive) | 34.4 µM (inactive)
COc1ccc(NC=O)c(C(O)CCNC(C)=O)c1 (stereo not given) | > 100 µM (inactive) | > 100 µM (inactive) | > 100 µM (inactive) | > 100 µM (inactive) | > 100 µM (inactive) | > 100 µM (inactive) | > 100 µM (inactive) | > 100 µM (inactive) | > 100 µM (inactive) | > 100 µM (inactive) | > 100 µM (inactive) | > 100 µM (inactive) | > 100 µM (inactive) | > 100 µM (inactive) | > 100 µM (inactive) | > 100 µM (inactive) | > 100 µM (inactive) | > 100 µM (inactive) | > 100 µM (inactive) | > 100 µM (inactive)
CN(C)c1nc(N)c(C#N)c(C#N)c1C#N | > 10 µM (inactive) | > 10 µM (inactive) | > 7.46 µM (inactive) | > 10 µM (inactive) | > 10 µM (inactive) | 3.28 µM (inactive) | > 10 µM (inactive) | 2.21 µM (inactive) | > 10 µM (inactive) | > 6 µM (inactive) | > 10 µM (inactive) | > 10 µM (inactive) | > 10 µM (inactive) | > 10 µM (inactive) | > 10 µM (inactive) | > 8.32 µM (inactive) | > 10 µM (inactive) | > 10 µM (inactive) | > 7.16 µM (inactive) | > 4.61 µM (inactive)
CC(=O)OCC1OC(n2c(N)c(C#N)c(-c3ccccc3)c(C#N)c2=S)C(OC(C)=O)C(OC(C)=O)C1OC(C)=O (stereo not given) | 11.8 µM (inactive) | 23.2 µM (inactive) | > 65.8 µM (inactive) | > 100 µM (inactive) | 14.6 µM (inactive) | > 100 µM (inactive) | 30.8 µM (inactive) | > 100 µM (inactive) | > 100 µM (inactive) | > 100 µM (inactive) | > 100 µM (inactive) | 19 µM (inactive) | > 100 µM (inactive) | > 64.4 µM (inactive) | > 49.8 µM (inactive) | > 81.1 µM (inactive) | > 58.9 µM (inactive) | > 100 µM (inactive) | 21.8 µM (inactive) | > 100 µM (inactive)
